Tests used:
Oxytocin receptor = molecular target: T1, Oxytocin receptor (Homo sapiens, UniProt P30559); test: Antagonist activity at human oxytocin receptor expressed in CHO cells by beta lactamase assay; format: functional, cell-based
T1 sequence (P30559 whole entry): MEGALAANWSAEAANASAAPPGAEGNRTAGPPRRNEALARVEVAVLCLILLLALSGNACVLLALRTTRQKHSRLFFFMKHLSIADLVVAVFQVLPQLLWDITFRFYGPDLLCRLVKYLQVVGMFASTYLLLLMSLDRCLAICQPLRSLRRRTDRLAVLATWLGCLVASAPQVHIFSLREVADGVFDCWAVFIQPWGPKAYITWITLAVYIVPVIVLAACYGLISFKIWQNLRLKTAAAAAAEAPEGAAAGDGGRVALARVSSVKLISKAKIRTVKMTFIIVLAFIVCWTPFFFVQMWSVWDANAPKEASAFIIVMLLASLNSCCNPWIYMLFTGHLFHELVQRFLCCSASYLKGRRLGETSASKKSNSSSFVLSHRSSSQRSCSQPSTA

Vasopressin V1a receptor = Vasopressin V1a receptor (Homo sapiens, UniProt P37288); test: Antagonist activity at human vasopressin V1A receptor; format: functional
[1] = molecular target: T2, Vasopressin V1b receptor (Homo sapiens) (UniProt P47901); test: Antagonist activity at human vasopressin V1B receptor at 10 uM; format: functional; set-up: scale not given: the % may be the effect or the level left
T2 sequence (whole entry): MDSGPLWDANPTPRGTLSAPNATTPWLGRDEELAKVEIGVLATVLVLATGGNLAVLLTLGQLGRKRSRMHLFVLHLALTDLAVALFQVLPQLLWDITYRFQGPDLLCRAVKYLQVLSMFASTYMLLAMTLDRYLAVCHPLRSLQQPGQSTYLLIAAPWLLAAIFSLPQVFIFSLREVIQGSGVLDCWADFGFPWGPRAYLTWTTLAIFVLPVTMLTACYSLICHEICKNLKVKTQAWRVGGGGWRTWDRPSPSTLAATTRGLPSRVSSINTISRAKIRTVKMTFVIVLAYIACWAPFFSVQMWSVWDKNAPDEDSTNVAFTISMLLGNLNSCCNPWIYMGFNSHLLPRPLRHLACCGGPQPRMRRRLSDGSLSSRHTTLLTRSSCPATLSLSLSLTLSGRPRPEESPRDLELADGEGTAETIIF

[2] = molecular target: Vasopressin V2 receptor (Homo sapiens) (UniProt P30518); test: Antagonist activity at human vasopressin V2 receptor at 10 uM; format: functional; set-up: scale not given: the % may be the effect or the level left
Sequence of Vasopressin V2 receptor (Homo sapiens) (P30518 whole entry): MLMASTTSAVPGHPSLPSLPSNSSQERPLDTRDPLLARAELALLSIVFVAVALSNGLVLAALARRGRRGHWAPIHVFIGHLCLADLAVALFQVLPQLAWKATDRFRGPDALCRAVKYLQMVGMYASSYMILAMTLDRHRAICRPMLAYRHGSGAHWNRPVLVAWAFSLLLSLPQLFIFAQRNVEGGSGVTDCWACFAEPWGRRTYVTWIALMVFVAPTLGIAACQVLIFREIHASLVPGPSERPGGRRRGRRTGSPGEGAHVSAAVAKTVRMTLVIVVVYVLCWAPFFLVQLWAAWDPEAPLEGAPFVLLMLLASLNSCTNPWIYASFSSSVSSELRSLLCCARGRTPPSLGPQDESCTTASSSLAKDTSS

Sequence of Vasopressin V1a receptor (P37288 whole entry): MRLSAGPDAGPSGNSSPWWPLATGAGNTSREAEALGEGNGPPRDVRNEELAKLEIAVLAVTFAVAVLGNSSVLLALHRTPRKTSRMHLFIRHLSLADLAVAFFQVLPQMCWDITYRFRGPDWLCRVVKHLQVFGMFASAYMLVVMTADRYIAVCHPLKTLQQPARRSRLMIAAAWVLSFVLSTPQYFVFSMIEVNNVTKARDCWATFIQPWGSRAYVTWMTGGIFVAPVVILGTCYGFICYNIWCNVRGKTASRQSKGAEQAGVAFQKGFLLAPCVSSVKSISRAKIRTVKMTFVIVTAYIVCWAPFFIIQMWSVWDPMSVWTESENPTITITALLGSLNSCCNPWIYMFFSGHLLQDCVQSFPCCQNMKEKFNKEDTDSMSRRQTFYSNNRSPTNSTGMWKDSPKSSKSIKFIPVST

## COc1ccc(N(C)C(=O)N2CC(Oc3ccc(F)cc3C)C2)cn1
Oxytocin receptor
  Ki: 0.112 µM
Vasopressin V1a receptor
  Ki: 1.3 µM

## CCN(C(=O)N1CC(Oc2cccc(F)c2C)C1)c1ccc(OC)nc1
Oxytocin receptor
  Ki: 0.0139 µM
Vasopressin V1a receptor
  Ki: > 4.2 µM
[1]
  Activity: < 10%
[2]
  Activity: < 10%

## COc1ccc(N(C)C(=O)N2CC(Oc3cccc(F)c3C)C2)cn1
Oxytocin receptor
  Ki: 0.159 µM
Vasopressin V1a receptor
  Ki: > 4.2 µM

## COc1ccc(N(C)C(=O)N2CC(Oc3ccc(F)cc3Cl)C2)cn1
Oxytocin receptor
  Ki: 0.0672 µM
Vasopressin V1a receptor
  Ki: 0.779 µM

## CCN(C(=O)N1CC(Oc2ccc(F)cc2C)C1)c1ccc(OC)nc1
Oxytocin receptor
  Ki: 0.043 µM

## COc1ccc(N(C)C(=O)N2CC(Oc3cc(F)cc(F)c3C)C2)cn1
Oxytocin receptor
  Ki: 0.237 µM
Vasopressin V1a receptor
  Ki: > 4.2 µM

## COc1ccc(-n2c(C)nnc2N2CC(Oc3cc(F)cc(F)c3C)C2)cn1
Oxytocin receptor
  Ki: 0.0414 µM
Vasopressin V1a receptor
  Ki: > 4.2 µM

## CCN(C(=O)N1CC(Oc2ccc(F)cc2Cl)C1)c1ccc(OC)nc1
Oxytocin receptor
  Ki: 0.0484 µM

## COc1ccc(-n2c(C)nnc2N2CC(Oc3cccc(F)c3C)C2)cn1
Oxytocin receptor
  Ki: 0.0197 µM
Vasopressin V1a receptor
  Ki: > 4.2 µM

## CCN(C(=O)N1CC(Oc2cc(F)cc(F)c2C)C1)c1ccc(OC)nc1
Oxytocin receptor
  Ki: 0.0367 µM
